Source: PMC6930660, “Synthesis and Comparative Structure–Activity Study of Carbohydrate-Based Phenolic Compounds as α-Glucosidase Inhibitors and Antioxidants” (Molecules, 2019)
Several values for one entry are separate records, joined by “and”; a condition that tells them apart may be missing. Equal entries are not always repeated.

Columns and labels:
[1] = DPPH radical scavenging assay (antioxidant activity); conditions: for EC50: MES-NaOH buffer pH 6.0, 15 min in the dark; for Antioxidant Trolox-eq (TE): trolox-equivalent (mol-trolox/mol-sample) = slope of sample / slope of trolox
Procedure: The antioxidant activity was assessed by employing the 2,2-diphenyl-1-picrylhydrazyl (DPPH) radical scavenging assay, according to the previously published method. In total, 100 μL of each sample (1000–10 μg/mL in 50%EtOH/ H2O ) or trolox (160–0 μM in 50% EtOH/ H2O ), and 50 μL of 2-(N-morpholino)ethanesulfonic acid (MES)-NaOH buffer (200 mM, pH = 6.0), and 50 μL of an 800 μM DPPH diluted in 99.5% EtOH were mixed in 96-well plates. Following shaking the microplate for 15 min in the dark, the absorbance was recorded at 520 nm using a microplate reader (Bio-Rad, Model 680). Effective percentages (%) were calculated as follows: Effective percentages (%) = 1−As/Ab ×100 where As is the absorbance of the sample and Ab is the absorbance of the blank (without samples, 50% EtOH/ H2O solution was used instead).
The trolox-equivalent (sample-mol/trolox-mol) was calculated as follows: Trolox−equivalent (mol−trolox/mol−sample) = Ss/St where Ss is the slope of the sample and St is the slope of trolox.

rat α-glucosidase = test: α-glucosidase inhibitory activity assay (FUJIFILM kit, maltose substrate, glucose measured by mutarotase-GOD method); format: biochemical; conditions: for IC50: rat α-glucosidase, 18.5 mM maltose, maleic anhydride buffer pH 6.0, 37 °C, 30 min, mean ± S.D. of n = 2; for α-glucosidase inhibitory activity, fold higher than acertannin (37): relative to acertannin (37)
Procedure: The α-glucosidase inhibitory activity of all samples was assayed utilizing a commercially available FUJIFILM α-glucosidase inhibitory activity assay kit. In total, 25 μL of each sample (25–2000 μg/mL in H2O ) or acarbose (0.5–8 μg/mL in H2O ), 50 μL of 18.5 mM maltose diluted in maleic anhydride buffer (100 mM, pH = 6.0), and 25 μL of the rat α-glucosidase solution were incubated in a micro-tube at 37 °C for 30 min. Subsequently, 400 μL of purified water was added to the solution and the reaction mixture was boiled for 3 min to deactivate α-glucosidase. The generated glucose was measured by LabAssay™ glucose (mutarotase-GOD method). In total, 100 μL of the reaction solution and 150 μL of the coloring solution were incubated in 96-well plates at 37 °C for 10 min, and the absorbance was recorded at 505 nm using a microplate reader (Bio-Rad, Model 680). The inhibition percentage was calculated using the following Equation: Inhibition percentage (%) = 1−As−Ab/Ac ×100 where As is the absorbance of the analyzed sample, Ab is the absorbance of the blank (immediate deactivation), and Ac is the absorbance of the control ([…]). Acarbose was used as the positive control.

| Compound | EC50 ([1]; mean ± S.D. of n = 3) [µM] | Antioxidant Trolox-eq (TE) ([1]; mean ± S.D. of n = 3) | IC50 (rat α-glucosidase) [µM] | α-glucosidase inhibitory activity, fold higher than acertannin (37) (rat α-glucosidase) | α-glucosidase inhibitory activity relative to gallic acid (rat α-glucosidase; relative to gallic acid) | antioxidant activity (in words) [1] | Antioxidant Trolox-eq (TE) ([1]; mean ± S.D. of n = 3, listed as methyl 3,4-dihydroxybenzoate) |
| --- | --- | --- | --- | --- | --- | --- | --- |
| 2,3,4,6-tetrakis-O-(3′,4′,5′-Trihydroxybenzoyl)-D-glucitol [Compound 54] | 6.61 ± 0.68 | 6.77 ± 0.63 | 2.56 ± 0.1 | more than 13 fold | – | – | – |
| C[C@H]1O[C@H](O[C@H]2[C@H](O)[C@@H](O)[C@@H](O[C@H]3[C@H](O)[C@@H](O)C(O)O[C@@H]3CO)O[C@@H]2CO)[C@H](O)[C@@H](O)[C@@H]1N[C@H]1C=C(CO)[C@@H](O)[C@H](O)[C@H]1O (stereo partly drawn) [Acarbose, reference compound] | – | – | 0.11 ± 0.02 | – | – | – | – |
| O=C(O[C@H]1CO[C@H](CO)[C@@H](O)[C@@H]1O)c1cc(O)c(O)c(O)c1 [Compound 31, 1,5-Anhydro-2-O-(3′,4′,5′-trihydroxybenzoyl)-D-glucitol] | 19.4 ± 1.02 | 2.04 ± 0.08 | 95.1 ± 0.22 | – | – | – | – |
| O=C(O[C@H]1[C@H](O)[C@@H](CO)OC[C@@H]1O)c1cc(O)c(O)c(O)c1 [Compound 32, 1,5-Anhydro-3-O-(3′,4′,5′-trihydroxybenzoyl)-D-glucitol] | 20.5 ± 2.05 | 2.38 ± 0.24 | 138 ± 1.5 | – | – | – | – |
| O=C(O[C@H]1[C@H](O)[C@@H](O)CO[C@@H]1CO)c1cc(O)c(O)c(O)c1 [Compound 33, 1,5-Anhydro-4-O-(3′,4′,5′-trihydroxybenzoyl)-D-glucitol] | 20.8 ± 1.54 | 2.09 ± 0.19 | 143.9 ± 0.52 | – | – | – | – |
| O=C(OC[C@H]1OC[C@H](O)[C@@H](O)[C@@H]1O)c1cc(O)c(O)c(O)c1 [Compound 34, 1,5-Anhydro-6-O-(3′,4′,5′-trihydroxybenzoyl)-D-glucitol] | 22.9 ± 1.61 | 2.13 ± 0.12 | 127.1 ± 0.88 | – | – | – | – |
| O=C(O[C@H]1[C@H](O)[C@@H](CO)OC[C@@H]1OC(=O)c1cc(O)c(O)c(O)c1)c1cc(O)c(O)c(O)c1 [Compound 35, 1,5-Anhydro-2,3-bis-O-(3′,4′,5′-trihydroxybenzoyl)-D-glucitol] | 11.3 ± 0.98 | 4.29 ± 0.23 | 20.5 ± 0.5 | – | three-times higher | – | – |
| O=C(O[C@H]1[C@H](O)[C@@H](OC(=O)c2cc(O)c(O)c(O)c2)CO[C@@H]1CO)c1cc(O)c(O)c(O)c1 [Compound 36, 1,5-Anhydro-2,4-bis-O-(3′,4′,5′-trihydroxybenzoyl)-D-glucitol] | 14.3 ± 0.29 | 3.36 ± 0.13 | 48.3 ± 1.25 | – | – | – | – |
| O=C(OC[C@H]1OC[C@H](OC(=O)c2cc(O)c(O)c(O)c2)[C@@H](O)[C@@H]1O)c1cc(O)c(O)c(O)c1 [Compound 37, 1,5-Anhydro-2,6-bis-O-(3′,4′,5′-trihydroxybenzoyl)-D-glucitol] | 15.2 ± 0.53 | 3.32 ± 0.37 | 35.6 ± 2.58 | – | – | – | – |
| O=C(O[C@H]1[C@H](OC(=O)c2cc(O)c(O)c(O)c2)[C@@H](CO)OC[C@@H]1O)c1cc(O)c(O)c(O)c1 [Compound 38, 1,5-Anhydro-3,4-bis-O-(3′,4′,5′-trihydroxybenzoyl)-D-glucitol] | 14.8 ± 0.56 | 3.55 ± 0.42 | 91.4 ± 6.56 | – | – | – | – |
| O=C(OC[C@H]1OC[C@H](O)[C@@H](OC(=O)c2cc(O)c(O)c(O)c2)[C@@H]1O)c1cc(O)c(O)c(O)c1 [Compound 39, 1,5-Anhydro-3,6-bis-O-(3′,4′,5′-trihydroxybenzoyl)-D-glucitol] | 11.9 ± 0.71 | 3.67 ± 0.19 | 55 ± 8.84 | – | – | – | – |
| O=C(OC[C@H]1OC[C@H](O)[C@@H](O)[C@@H]1OC(=O)c1cc(O)c(O)c(O)c1)c1cc(O)c(O)c(O)c1 [Compound 40, 1,5-Anhydro-4,6-bis-O-(3′,4′,5′-trihydroxybenzoyl)-D-glucitol] | 13 ± 1.12 | 3.78 ± 0.33 | 26.6 ± 2.37 | – | – | – | – |
| O=C(O[C@H]1[C@H](OC(=O)c2cc(O)c(O)c(O)c2)[C@@H](CO)OC[C@@H]1OC(=O)c1cc(O)c(O)c(O)c1)c1cc(O)c(O)c(O)c1 [Compound 41, 1,5-Anhydro-2,3,4-tris-O-(3′,4′,5′-trihydroxybenzoyl)-D-glucitol] | 7.94 ± 0.39 | 5.59 ± 0.26 | 6.72 ± 0.21 | – | – | – | – |
| O=C(OC[C@H]1OC[C@H](OC(=O)c2cc(O)c(O)c(O)c2)[C@@H](OC(=O)c2cc(O)c(O)c(O)c2)[C@@H]1O)c1cc(O)c(O)c(O)c1 [Compound 42, 1,5-Anhydro-2,3,6-tris-O-(3′,4′,5′-trihydroxybenzoyl)-D-glucitol] | 8.09 ± 0.41 | 5.75 ± 0.18 | 5.34 ± 0.55 | – | – | – | – |
| O=C(OC[C@H]1OC[C@H](OC(=O)c2cc(O)c(O)c(O)c2)[C@@H](O)[C@@H]1OC(=O)c1cc(O)c(O)c(O)c1)c1cc(O)c(O)c(O)c1 [Compound 43, 1,5-Anhydro-2,4,6-tris-O-(3′,4′,5′-trihydroxybenzoyl)-D-glucitol] | 10.3 ± 0.76 | 4.31 ± 0.35 | 9.34 ± 0.99 | – | – | – | – |
| O=C(OC[C@H]1OC[C@H](O)[C@@H](OC(=O)c2cc(O)c(O)c(O)c2)[C@@H]1OC(=O)c1cc(O)c(O)c(O)c1)c1cc(O)c(O)c(O)c1 [Compound 44, 1,5-Anhydro-3,4,6-tris-O-(3′,4′,5′-trihydroxybenzoyl)-D-glucitol] | 8.48 ± 0.21 | 5.36 ± 0.20 | 12.6 ± 0.61 | – | – | – | – |
| O=C(OC[C@H]1OC[C@H](OC(=O)c2ccc(O)c(O)c2)[C@@H](OC(=O)c2ccc(O)c(O)c2)[C@@H]1OC(=O)c1ccc(O)c(O)c1)c1ccc(O)c(O)c1 [Compound 55, 1,5-Anhydro-2,3,4,6-tetrakis-O-(3′,4′-dihydroxybenzoyl)-D-glucitol] | 6.99 ± 0.11 | 6.54 and 6.54 ± 0.15 | 3.28 ± 0.16 | – | – | – | – |
| O=C(OC[C@H]1OC[C@H](OC(=O)c2cc(O)cc(O)c2)[C@@H](OC(=O)c2cc(O)cc(O)c2)[C@@H]1OC(=O)c1cc(O)cc(O)c1)c1cc(O)cc(O)c1 [Compound 56, 1,5-Anhydro-2,3,4,6-tetrakis-O-(3,5-dihydroxybenzoyl)-D-glucitol] | > 70 | – | 9.34 ± 0.02 | – | – | no antioxidant activity was observed | – |
| O=C(OC[C@H]1OC(O)[C@H](OC(=O)c2cc(O)c(O)c(O)c2)[C@@H](OC(=O)c2cc(O)c(O)c(O)c2)[C@@H]1OC(=O)c1cc(O)c(O)c(O)c1)c1cc(O)c(O)c(O)c1 (stereo partly drawn) [Compound 61, 2,3,4,6-tetrakis-O-(3′,4′,5′-Trihydroxybenzoyl)-α,β-D-glucopyranose] | 5.6 ± 0.28 | 8.33 ± 0.49 | 1.68 ± 0.21 | more than 13 fold | – | – | – |
| O=C(O[C@H]1[C@@H]2OC(=O)c3cc(O)c(O)c(O)c3-c3c(cc(O)c(O)c3O)C(=O)OC[C@H]2OC[C@@H]1OC(=O)c1cc(O)c(O)c(O)c1)c1cc(O)c(O)c(O)c1 [Compound 67, 1,5-Anhydro-2,3-bis-O-(3′,4′,5′-trihydroxybenzoyl)-4,6-O-hexahydroxydiphenyl-D-glucitol] | 6.79 ± 0.21 | 6.44 and 6.44 ± 0.24 | 3.22 ± 0.51 | – | – | – | – |
| COC(=O)c1ccc(O)c(O)c1 [Methyl 3,4-dihydroxybenzoate, methyl 3,4-dihydroxybenzoate, reference compound] | 21.1 ± 1.08 | 2.20 ± 0.05 | > 300 | – | – | – | 2.20 |
| Cc1c(C)c2c(c(C)c1O)CCC(C)(C(=O)O)O2 (stereo not drawn) [Trolox, reference compound] | 49.4 ± 3.87 | – | – | – | – | – | – |
